Results from patent US20240336654A1, “ANTIMICROBIAL PEPTIDOMIMETICS” (SPEXIS AG, priority 2021, published 2024).
Where a SMILES comes first, the peptide text is derived from it. Bridges are numbered along the chain shown (N, C = ends). [ ]: non-standard residue; d: D form. Hyp = O=C(O)[C@@H]1C[C@@H](O)CN1; Cit = NC(=O)NCCC[C@H](N)C(=O)O; Pen = CC(C)(S)[C@H](N)C(=O)O; dDab = NCC[C@@H](N)C(=O)O; Dab = NCC[C@H](N)C(=O)O

What was measured:
Assay type in all cases: cell-based
[1] = test system: Escherichia coli ATCC 25922; conditions: ATCC 25922
Outline: (§1)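 The MIC is the lowest peptide concentration, in μg/mL, with no visible growth after 18-20 h incubation at 35 °C. Serial two-fold peptide dilutions in water with 0.002% P-80 final were added to bacteria in cation-adjusted MHII broth, about 5×10^5 CFU/mL, following modified CLSI microdilution.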

[2] = test system: Escherichia coli MCR-1 Af 45; conditions: MCR-1 Af 45
Outline: as §1

[3] = test system: Klebsiella pneumoniae SSI3010; conditions: SSI3010
Outline: as §1

[4] = test system: human red blood cells (hRBC); conditions: red cells of human, 1 h, 200 μg/mL
Outline: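 Percent hemolysis derived from OD540 of supernatants relative to full lysis by 2.5% Triton X-100 (PBS baseline). Washed fresh human erythrocytes (20% v/v) were exposed to 200 μg/mL peptide for 1 h at 37 °C with shaking.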

| SMILES | Escherichia coli ATCC 25922 MIC [1] [µg/mL] | Escherichia coli MCR-1 Af45 MIC [2] [µg/mL] | Klebsiella pneumoniae SSI3010 MIC [3] [µg/mL] | Hemolysis at 0.2 g/L [4] [%] |
| --- | --- | --- | --- | --- |
| CC[C@H](C)[C@H](NC(=O)[C@@H]1C[C@@H](O)CN1C(=O)[C@@H](N)C(C)C)C(=O)N[C@@H]1C(=O)N[C@@H](Cc2ccc(O)cc2)C(=O)N[C@@H](CCN)C(=O)N[C@@H](CC(N)=O)C(=O)N[C@@H](CCCNC(=N)N)C(=O)N[C@@H](CCN)C(=O)N[C@@H]([C@@H](C)O)C(=O)N[C@H](CCN)C(=O)N[C@@H](CCCCN)C(=O)N[C@@H](CO)C(=O)N[C@@H](CCN)C(=O)N[C@H](C(=O)N[C@@H](Cc2ccc(O)cc2)C(=O)O)CSSC1(C)C [Example 45, Val-Hyp-Ile-Pen-Tyr-Dab-Asn-Arg-Dab-Thr-^DDab-Lys-Ser-Dab-Cys-Tyr] (H-V[Hyp]I[Pen]Y[Dab]NR[Dab]T[dDab]KS[Dab]CY-OH; disulfide 4-15) | 0.125 | 0.125 | 0.0625 | <1 |
| CC[C@H](C)[C@H](NC(=O)[C@@H]1C[C@@H](O)CN1C(=O)[C@@H](N)C(C)C)C(=O)N[C@@H]1C(=O)N[C@@H](Cc2ccc(O)cc2)C(=O)N[C@@H](CO)C(=O)N[C@@H](CC(N)=O)C(=O)N[C@@H](CCCNC(=N)N)C(=O)N[C@@H](CCN)C(=O)N[C@@H]([C@@H](C)O)C(=O)N[C@H](CCN)C(=O)N[C@@H](CCCCN)C(=O)N[C@@H](C)C(=O)N[C@@H](CCN)C(=O)N[C@H](C(=O)N[C@@H](Cc2ccc(O)cc2)C(=O)O)CSSC1(C)C [Example 46, Val-Hyp-Ile-Pen-Tyr-Ser-Asn-Arg-Dab-Thr-^DDab-Lys-Ala-Dab-Cys-Tyr] (H-V[Hyp]I[Pen]YSNR[Dab]T[dDab]KA[Dab]CY-OH; disulfide 4-15) | 0.5 | 0.25 | 0.5 | <1 |
| CC[C@H](C)[C@H](NC(=O)[C@@H]1C[C@@H](O)CN1C(=O)[C@@H](N)C(C)C)C(=O)N[C@@H]1C(=O)N[C@@H](Cc2ccc(O)cc2)C(=O)N[C@@H](CO)C(=O)N[C@@H](CC(N)=O)C(=O)N[C@@H](CCCNC(=N)N)C(=O)N[C@@H](CCN)C(=O)N[C@@H]([C@@H](C)O)C(=O)N[C@H](CCN)C(=O)N[C@@H](CCCCN)C(=O)N[C@@H](CO)C(=O)N[C@@H](CCN)C(=O)N[C@H](C(=O)N[C@@H](Cc2ccc(O)cc2)C(=O)O)CSSC1(C)C [Example 47, Val-Hyp-Ile-Pen-Tyr-Ser-Asn-Arg-Dab-Thr-^DDab-Lys-Ser-Dab-Cys-Tyr] (H-V[Hyp]I[Pen]YSNR[Dab]T[dDab]KS[Dab]CY-OH; disulfide 4-15) | 0.25 | 0.25 | 0.5 | <1 |
| CC[C@H](C)[C@H](NC(=O)[C@@H]1C[C@@H](O)CN1C(=O)[C@@H](N)C(C)C)C(=O)N[C@@H]1C(=O)N[C@@H](Cc2ccc(O)cc2)C(=O)N[C@@H](CCN)C(=O)N[C@@H](CC(N)=O)C(=O)N[C@@H](CCCNC(=N)N)C(=O)N[C@@H](CCN)C(=O)N[C@@H]([C@@H](C)O)C(=O)N[C@H](CCN)C(=O)N[C@@H](CCCCN)C(=O)N[C@@H](CO)C(=O)N[C@@H](CO)C(=O)N[C@H](C(=O)N[C@@H](Cc2ccc(O)cc2)C(=O)O)CSSC1(C)C [Example 48, Val-Hyp-Ile-Pen-Tyr-Dab-Asn-Arg-Dab-Thr-^DDab-Lys-Ser-Ser-Cys-Tyr] (H-V[Hyp]I[Pen]Y[Dab]NR[Dab]T[dDab]KSSCY-OH; disulfide 4-15) | 0.25 | 0.25 | 0.5 | <1 |
| CC[C@H](C)[C@H](NC(=O)[C@@H]1C[C@@H](O)CN1C(=O)[C@@H](N)C(C)C)C(=O)N[C@@H]1C(=O)N[C@@H](Cc2ccc(O)cc2)C(=O)N[C@@H](CCN)C(=O)N[C@@H](CC(N)=O)C(=O)N[C@@H](CCCNC(=N)N)C(=O)N[C@@H](CCN)C(=O)N[C@@H]([C@@H](C)O)C(=O)N[C@H](CCN)C(=O)N[C@@H](CCCCN)C(=O)N[C@@H]([C@@H](C)O)C(=O)N[C@@H](CCCNC(N)=O)C(=O)N[C@H](C(=O)N[C@@H](Cc2ccc(O)cc2)C(=O)O)CSSC1(C)C [Example 49, Val-Hyp-Ile-Pen-Tyr-Dab-Asn-Arg-Dab-Thr-^DDab-Lys-Thr-Cit-Cys-Tyr] (H-V[Hyp]I[Pen]Y[Dab]NR[Dab]T[dDab]KT[Cit]CY-OH; disulfide 4-15) | 0.25 | 0.25 | 0.5 | <1 |
| CC[C@H](C)[C@@H]1NC(=O)[C@H]([C@@H](C)O)NC(=O)[C@H](CCCCN)NC(=O)[C@@H](CCN)NC(=O)[C@H]([C@@H](C)O)NC(=O)[C@H](CCN)NC(=O)[C@H](CCCNC(=N)N)NC(=O)[C@H](CC(N)=O)NC(=O)[C@H](CCN)NC(=O)[C@H](Cc2ccc(O)cc2)NC(=O)[C@@H](NC(=O)[C@@H](NC(=O)[C@@H]2C[C@@H](O)CN2C(=O)[C@@H](N)C(C)C)[C@@H](C)CC)C(C)(C)SSC[C@@H](C(=O)N[C@@H](Cc2ccc(O)cc2)C(=O)O)NC1=O [Example 50, Val-Hyp-Ile-Pen-Tyr-Dab-Asn-Arg-Dab-Thr-^DDab-Lys-Thr-Ile-Cys-Tyr] (H-V[Hyp]I[Pen]Y[Dab]NR[Dab]T[dDab]KTICY-OH; disulfide 4-15) | 0.5 | 0.5 | 1 | <1 |
| CC[C@H](C)[C@H](NC(=O)[C@@H]1C[C@@H](O)CN1C(=O)[C@@H](N)C(C)C)C(=O)N[C@@H]1C(=O)N[C@@H](Cc2ccc(O)cc2)C(=O)N[C@@H](CCN)C(=O)N[C@@H](CC(N)=O)C(=O)N[C@@H](CCCNC(=N)N)C(=O)N[C@@H](CCN)C(=O)N[C@@H]([C@@H](C)O)C(=O)N[C@H](CCN)C(=O)N[C@@H](CCCCN)C(=O)N[C@@H]([C@@H](C)O)C(=O)N[C@@H](CC(N)=O)C(=O)N[C@H](C(=O)N[C@@H](Cc2ccc(O)cc2)C(=O)O)CSSC1(C)C [Example 51, Val-Hyp-Ile-Pen-Tyr-Dab-Asn-Arg-Dab-Thr-^DDab-Lys-Thr-Asn-Cys-Tyr] (H-V[Hyp]I[Pen]Y[Dab]NR[Dab]T[dDab]KTNCY-OH; disulfide 4-15) | 0.25 | 0.25 | 0.5 | <1 |
| CC[C@H](C)[C@H](NC(=O)[C@@H]1C[C@@H](O)CN1C(=O)[C@@H](N)C(C)C)C(=O)N[C@@H]1C(=O)N[C@@H](Cc2ccc(O)cc2)C(=O)N[C@@H](CCN)C(=O)N[C@@H](CC(N)=O)C(=O)N[C@@H](CCCNC(=N)N)C(=O)N[C@@H](CCN)C(=O)N[C@@H]([C@@H](C)O)C(=O)N[C@H](CCN)C(=O)N[C@@H](CCCCN)C(=O)N[C@@H]([C@@H](C)O)C(=O)N[C@@H](CO)C(=O)N[C@H](C(=O)N[C@@H](Cc2ccc(O)cc2)C(=O)O)CSSC1(C)C [Example 52, Val-Hyp-Ile-Pen-Tyr-Dab-Asn-Arg-Dab-Thr-^DDab-Lys-Thr-Ser-Cys-Tyr] (H-V[Hyp]I[Pen]Y[Dab]NR[Dab]T[dDab]KTSCY-OH; disulfide 4-15) | 0.25 | 0.25 | 1 | <1 |
